In general, clearance refers to a measure of how efficiently the substance is removed, as volume per time. The low end stands for a low capacity for elimination, the high end for a high capacity for elimination. As a reminder, the Vd is the apparent volume that relates the amount in the body to the concentration in plasma or blood. By half-life is commonly meant the time in which the quantity being followed falls by half. Broadly, the bioavailability is the share of a dose that reaches the circulation, judged against a reference dose that is usually intravenous. Low readings indicate little systemic uptake, high ones much systemic uptake.

Data on one compound can be found in ChEMBL document CHEMBL1146127, “Aminobenzisoxazoles with biaryl P4 moieties as potent, selective, and orally bioavailable factor Xa inhibitors” (Bioorg Med Chem Lett, 2006).

Data set [1] in a line: in vivo. To be noted: dog, iv, 0.4 mg/kg.
Data set [2] can be described thus: in vivo. Conditions: dog, iv, 0.4 mg/kg. The source holds these as a separate data set.
Data set [3] is described as follows: in vivo. Conditions: dog.
A short description of data set [4]: in vivo. To be noted: dog, po, 0.2 mg/kg.

The compound `Nc1noc2ccc(-n3nc(C(F)(F)F)cc3C(=O)Nc3ccc(-c4ccccc4CN4CCCC4)cc3F)cc12` gave a clearance in data set [1] of 28.3 mL/min/kg. This compound also displayed a Vd in data set [2] of 23 L/kg. Besides, the half-life in data set [3] is 10 h. The bioavailability in data set [4] was 64%.
